This passage reports inhibition, residual activity and Ki results from ChEMBL document CHEMBL4507263, “Data for DCP probe BAY-474” (2021).

In general, inhibition refers to the change of the read-out against control, counted positive when it falls. Broadly, the Ki is a dissociation constant, usually derived from enzyme kinetics or from competition with a known ligand.

Test [1] has as its target Homeodomain-interacting protein kinase 3 (Homo sapiens) (UniProt Q9H422). In words: HIPK3 (h) Millipore kinase activity assay. The following applies: Compound concentration 1.0 uM.
The target in test [2] is Proto-oncogene tyrosine-protein kinase Src (Homo sapiens) (UniProt P12931). The test is described as follows: cSRC (h) Millipore kinase activity assay. The following applies: Compound concentration 1.0 uM.
For test [3], the target named is Cyclin-dependent kinase 1/cyclin B (Homo sapiens) (UniProt P06493+P14635+Q8WWL7+O95067). The test is described as follows: CDK1/cyclinB( h) Millipore kinase activity assay. It counts as protein-complex assay. The following applies: Compound concentration 1.0 uM.
In test [4] the target is Histamine H1 receptor (Homo sapiens) (UniProt P35367). Conditions: Compound concentration 10.0 uM.
The target in test [5] is Gamma-aminobutyric acid type B receptor subunit 1 (Homo sapiens) (UniProt Q9UBS5). In words: Inhibition of GABAB1A at compound concentration of 10.0 uM in the Eurofins-Panlabs radioligand binding assay (Eurofins_assay_228610). The arrangement: ligand concentration 4 nM. Conditions: Compound concentration 10.0 uM.
Test [6] addresses RAC-gamma serine/threonine-protein kinase (Homo sapiens) (UniProt Q9Y243). The test is described as follows: PKBgamma (h) Millipore kinase activity assay. The following applies: Compound concentration 1.0 uM.
In test [7] the target is Vascular endothelial growth factor receptor 2 (Homo sapiens) (UniProt P35968). In words: KDR (h) Millipore kinase activity assay. The following applies: Compound concentration 1.0 uM.
For test [8], the target named is Sodium-dependent serotonin transporter (Homo sapiens) (UniProt P31645). The following applies: Compound concentration 10.0 uM.
For test [9], the target named is Protein kinase C alpha type (Homo sapiens) (UniProt P17252). In words: PKCalpha (h) Millipore kinase activity assay. Conditions: Compound concentration 1.0 uM.
The species entered for another test is Oryctolagus cuniculus. In words: Inhibition of Purinergic P2X at 10 µM in the Eurofins-Panlabs radioligand binding assay (Eurofins_assay_268700). The following applies: Compound concentration 10.0 uM. It counts as protein assay.
Test [10] has as its target Mitogen-activated protein kinase 13 (Homo sapiens) (UniProt O15264). In words: SAPK4 (h) Millipore kinase activity assay. Conditions: Compound concentration 1.0 uM.
The target in test [11] is Serine/threonine-protein kinase PAK 6 (Homo sapiens) (UniProt Q9NQU5). In words: PAK6 (h) Millipore kinase activity assay. The following applies: Compound concentration 1.0 uM.
Test [12] addresses Casein kinase II subunit alpha' (Homo sapiens) (UniProt P19784). The test is described as follows: CK2alpha2 (h) Millipore kinase activity assay. Conditions: Compound concentration 1.0 uM.
Test [13] deals with Ribosomal protein S6 kinase alpha-1 (Homo sapiens) (UniProt Q15418). The test is described as follows: Rsk1 (h) Millipore kinase activity assay. Conditions: Compound concentration 1.0 uM.
For test [14], the target named is Ephrin type-A receptor 4 (Homo sapiens) (UniProt P54764). In words: EphA4 (h) Millipore kinase activity assay. The following applies: Compound concentration 1.0 uM.
The target of test [15] is Calcium/calmodulin-dependent protein kinase type II subunit gamma (Homo sapiens) (UniProt Q13555). In words: CaMKIIgamma (h) Millipore kinase activity assay. The following applies: Compound concentration 1.0 uM.
Test [16] deals with Ribosomal protein S6 kinase alpha-6 (Homo sapiens) (UniProt Q9UK32). In words: Rsk4 (h) Millipore kinase activity assay. The following applies: Compound concentration 1.0 uM.
Test [17] has as its target Serine/threonine-protein kinase WNK1 (Homo sapiens) (UniProt Q9H4A3). The following applies: Compound concentration 1000.0 nM.
The test system of test [18] is Mast/stem cell growth factor receptor Kit (Homo sapiens), P10721 [A829P]. Conditions: Compound concentration 1000.0 nM.
For test [19], the target named is Mitogen-activated protein kinase 10 (Homo sapiens) (UniProt P53779). Conditions: Compound concentration 1000.0 nM.
For test [20], the target named is 5-hydroxytryptamine receptor 2C (Homo sapiens, UniProt P28335). The test is described as follows: GPCRScan assay: inhibition of 5-HT2C. Further details: radioligand conc. used [nm] 1.0 – 2.5, parental cells HEK T.
Test [21] addresses Mitogen-activated protein kinase 6 (Homo sapiens) (UniProt Q16659). Conditions: Compound concentration 1000.0 nM.
Test [22] addresses Ephrin type-A receptor 5 (Homo sapiens) (UniProt P54756). Conditions: Compound concentration 1000.0 nM.
In test [23] the target is Serine/threonine-protein kinase D1 (Homo sapiens) (UniProt Q15139). The following applies: Compound concentration 1000.0 nM.
For test [24], the target named is Serine/threonine-protein kinase MARK2 (Homo sapiens) (UniProt Q7KZI7). Conditions: Compound concentration 1000.0 nM.
The target of test [25] is Receptor-interacting serine/threonine-protein kinase 4 (Homo sapiens) (UniProt P57078). Conditions: Compound concentration 1000.0 nM.
The target in test [26] is Serine/threonine-protein kinase VRK2 (Homo sapiens) (UniProt Q86Y07). Conditions: Compound concentration 1000.0 nM.
Test [27] concerns the target Interferon-induced, double-stranded RNA-activated protein kinase (Homo sapiens) (UniProt P19525). Conditions: Compound concentration 1000.0 nM.
Test [28] has as its target Casein kinase I isoform gamma-2 (Homo sapiens) (UniProt P78368). Conditions: Compound concentration 1000.0 nM.
Test [29] has as its target Phosphatidylinositol 3-kinase catalytic subunit type 3 (Homo sapiens) (UniProt Q8NEB9). The following applies: Compound concentration 1000.0 nM.
Test [30] concerns the target Calcium/calmodulin-dependent protein kinase type IV (Homo sapiens) (UniProt Q16566). The following applies: Compound concentration 1000.0 nM.
Test [31] has as its target Mitogen-activated protein kinase 1 (Homo sapiens) (UniProt P28482). The following applies: Compound concentration 1000.0 nM.
Test [32] has as its system Tyrosine-protein kinase ABL1 (Homo sapiens), P00519 [F317L]. Conditions: Compound concentration 1000.0 nM.
In test [33] the target is Myotonin-protein kinase (Homo sapiens) (UniProt Q09013). Conditions: Compound concentration 1000.0 nM.
Test [34] concerns the target Phosphatidylinositol 4-phosphate 5-kinase type-1 alpha (Homo sapiens) (UniProt Q99755). The following applies: Compound concentration 1000.0 nM.
The test system of test [35] is Mast/stem cell growth factor receptor Kit (Homo sapiens), P10721 [V559D]. Conditions: Compound concentration 1000.0 nM.
Test [36] deals with 5-hydroxytryptamine receptor 6 (Homo sapiens, UniProt P50406). In words: GPCRScan assay: inhibition of 5-HT6. Further details: radioligand conc. used [nm] 2.0 – 4.0, parental cells stable HEK.
Test [37] addresses Ribosomal protein S6 kinase alpha-4 (Homo sapiens) (UniProt O75676). Conditions: Compound concentration 1000.0 nM.
The target in test [38] is Serine/threonine-protein kinase Nek3 (Homo sapiens) (UniProt P51956). The following applies: Compound concentration 1000.0 nM.
For test [39], the target named is Non-receptor tyrosine-protein kinase TYK2 (Homo sapiens) (UniProt P29597). The following applies: Compound concentration 1000.0 nM.
In test [40] the target is Serine/threonine-protein kinase pim-1 (Homo sapiens) (UniProt P11309). The following applies: Compound concentration 1000.0 nM.
Test [41] addresses Serine/threonine-protein kinase D2 (Homo sapiens) (UniProt Q9BZL6). Conditions: Compound concentration 1000.0 nM.
For test [42], the target named is Serine/threonine-protein kinase LATS1 (Homo sapiens) (UniProt O95835). Conditions: Compound concentration 1000.0 nM.
In test [43] the target is Serine/threonine-protein kinase 33 (Homo sapiens) (UniProt Q9BYT3). Conditions: Compound concentration 1000.0 nM.
The target in another test is D(1B) dopamine receptor (Homo sapiens, UniProt P21918). The test is described as follows: GPCRScan assay: inhibition of D5. The arrangement: radioligand conc. used [nm] 2.0 – 3.0, parental cells HEKT.

Casein kinase I isoform gamma-2 (Homo sapiens), sequence (P78368 whole entry, looked up, canonical isoform): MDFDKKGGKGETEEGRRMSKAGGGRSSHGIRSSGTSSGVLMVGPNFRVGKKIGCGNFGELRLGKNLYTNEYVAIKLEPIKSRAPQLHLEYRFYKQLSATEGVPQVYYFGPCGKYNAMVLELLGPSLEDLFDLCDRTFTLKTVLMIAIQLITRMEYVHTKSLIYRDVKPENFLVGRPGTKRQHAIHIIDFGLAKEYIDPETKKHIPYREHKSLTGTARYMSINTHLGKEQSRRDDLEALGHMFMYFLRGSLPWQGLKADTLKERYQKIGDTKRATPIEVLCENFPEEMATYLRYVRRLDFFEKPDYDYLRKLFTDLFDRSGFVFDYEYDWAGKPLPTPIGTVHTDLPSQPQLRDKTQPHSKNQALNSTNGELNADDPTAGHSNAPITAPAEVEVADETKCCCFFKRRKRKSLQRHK
Tyrosine-protein kinase ABL1 (Homo sapiens), P00519 [F317L], sequence (P00519 whole entry F317L): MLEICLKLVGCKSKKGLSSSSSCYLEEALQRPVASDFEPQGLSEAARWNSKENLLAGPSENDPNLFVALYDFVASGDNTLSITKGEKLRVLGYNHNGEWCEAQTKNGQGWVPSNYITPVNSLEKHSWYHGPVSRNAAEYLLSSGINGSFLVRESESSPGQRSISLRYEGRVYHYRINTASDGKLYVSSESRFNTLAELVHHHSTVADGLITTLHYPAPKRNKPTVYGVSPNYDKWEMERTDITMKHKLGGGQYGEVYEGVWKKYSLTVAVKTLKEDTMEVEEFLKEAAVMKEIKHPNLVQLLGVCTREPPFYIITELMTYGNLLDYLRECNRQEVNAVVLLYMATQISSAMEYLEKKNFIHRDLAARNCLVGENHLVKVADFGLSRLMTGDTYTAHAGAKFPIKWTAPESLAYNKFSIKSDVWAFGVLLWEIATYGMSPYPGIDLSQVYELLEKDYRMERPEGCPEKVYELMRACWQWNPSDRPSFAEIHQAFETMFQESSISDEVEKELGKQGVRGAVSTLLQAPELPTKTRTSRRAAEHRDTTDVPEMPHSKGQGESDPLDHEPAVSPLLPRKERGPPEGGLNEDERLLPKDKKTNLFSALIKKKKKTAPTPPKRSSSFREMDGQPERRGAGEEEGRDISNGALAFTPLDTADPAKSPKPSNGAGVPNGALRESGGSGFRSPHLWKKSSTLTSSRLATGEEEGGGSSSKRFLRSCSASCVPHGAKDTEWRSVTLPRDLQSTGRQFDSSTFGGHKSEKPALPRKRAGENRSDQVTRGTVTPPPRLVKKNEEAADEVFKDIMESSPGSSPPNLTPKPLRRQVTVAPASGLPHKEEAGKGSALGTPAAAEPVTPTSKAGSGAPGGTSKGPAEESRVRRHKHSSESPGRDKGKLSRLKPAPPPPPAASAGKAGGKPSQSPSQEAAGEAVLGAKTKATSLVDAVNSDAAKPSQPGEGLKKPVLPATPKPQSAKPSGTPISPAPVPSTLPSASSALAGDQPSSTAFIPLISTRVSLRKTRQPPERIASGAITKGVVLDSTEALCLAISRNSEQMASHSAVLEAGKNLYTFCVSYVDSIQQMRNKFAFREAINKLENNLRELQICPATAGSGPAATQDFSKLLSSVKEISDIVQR
Interferon-induced, double-stranded RNA-activated protein kinase (Homo sapiens), sequence (P19525 whole entry, canonical isoform): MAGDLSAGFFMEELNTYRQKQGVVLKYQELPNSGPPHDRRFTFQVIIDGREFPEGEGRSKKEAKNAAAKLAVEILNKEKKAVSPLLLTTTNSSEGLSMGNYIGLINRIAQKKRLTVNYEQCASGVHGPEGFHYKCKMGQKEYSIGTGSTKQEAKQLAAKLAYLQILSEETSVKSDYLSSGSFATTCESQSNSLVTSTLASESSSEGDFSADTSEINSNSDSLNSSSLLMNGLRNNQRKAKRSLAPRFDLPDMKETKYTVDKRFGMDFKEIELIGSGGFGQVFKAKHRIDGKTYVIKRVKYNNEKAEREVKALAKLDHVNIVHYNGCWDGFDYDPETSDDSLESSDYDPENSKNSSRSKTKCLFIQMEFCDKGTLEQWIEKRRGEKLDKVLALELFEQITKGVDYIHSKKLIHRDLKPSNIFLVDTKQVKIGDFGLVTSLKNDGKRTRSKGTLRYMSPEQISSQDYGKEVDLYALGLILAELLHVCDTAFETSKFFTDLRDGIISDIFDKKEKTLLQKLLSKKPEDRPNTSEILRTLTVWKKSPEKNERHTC
Serine/threonine-protein kinase D2 (Homo sapiens), sequence (Q9BZL6 whole entry): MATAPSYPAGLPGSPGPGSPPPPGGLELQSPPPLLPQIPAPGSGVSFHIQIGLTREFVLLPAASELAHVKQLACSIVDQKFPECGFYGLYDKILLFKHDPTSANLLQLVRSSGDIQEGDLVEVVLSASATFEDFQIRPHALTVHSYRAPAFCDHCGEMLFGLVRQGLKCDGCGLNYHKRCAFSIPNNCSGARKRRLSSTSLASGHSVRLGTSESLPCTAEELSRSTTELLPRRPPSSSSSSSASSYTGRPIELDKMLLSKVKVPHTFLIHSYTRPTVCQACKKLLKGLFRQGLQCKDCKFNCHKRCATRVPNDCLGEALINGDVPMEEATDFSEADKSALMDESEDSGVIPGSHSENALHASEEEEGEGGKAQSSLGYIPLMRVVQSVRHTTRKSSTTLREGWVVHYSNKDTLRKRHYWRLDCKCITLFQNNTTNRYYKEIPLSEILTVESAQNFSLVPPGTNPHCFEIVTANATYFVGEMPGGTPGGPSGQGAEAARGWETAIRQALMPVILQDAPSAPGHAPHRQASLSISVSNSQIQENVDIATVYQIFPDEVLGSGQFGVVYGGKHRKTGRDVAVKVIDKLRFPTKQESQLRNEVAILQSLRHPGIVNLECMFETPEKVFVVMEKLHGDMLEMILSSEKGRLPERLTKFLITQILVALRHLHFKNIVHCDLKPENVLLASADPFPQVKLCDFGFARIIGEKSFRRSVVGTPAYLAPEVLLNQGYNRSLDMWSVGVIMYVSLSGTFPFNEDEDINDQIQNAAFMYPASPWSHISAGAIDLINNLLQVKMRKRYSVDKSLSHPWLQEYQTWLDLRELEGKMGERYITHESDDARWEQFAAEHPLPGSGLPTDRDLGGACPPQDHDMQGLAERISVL
Receptor-interacting serine/threonine-protein kinase 4 (Homo sapiens), sequence (P57078 whole entry): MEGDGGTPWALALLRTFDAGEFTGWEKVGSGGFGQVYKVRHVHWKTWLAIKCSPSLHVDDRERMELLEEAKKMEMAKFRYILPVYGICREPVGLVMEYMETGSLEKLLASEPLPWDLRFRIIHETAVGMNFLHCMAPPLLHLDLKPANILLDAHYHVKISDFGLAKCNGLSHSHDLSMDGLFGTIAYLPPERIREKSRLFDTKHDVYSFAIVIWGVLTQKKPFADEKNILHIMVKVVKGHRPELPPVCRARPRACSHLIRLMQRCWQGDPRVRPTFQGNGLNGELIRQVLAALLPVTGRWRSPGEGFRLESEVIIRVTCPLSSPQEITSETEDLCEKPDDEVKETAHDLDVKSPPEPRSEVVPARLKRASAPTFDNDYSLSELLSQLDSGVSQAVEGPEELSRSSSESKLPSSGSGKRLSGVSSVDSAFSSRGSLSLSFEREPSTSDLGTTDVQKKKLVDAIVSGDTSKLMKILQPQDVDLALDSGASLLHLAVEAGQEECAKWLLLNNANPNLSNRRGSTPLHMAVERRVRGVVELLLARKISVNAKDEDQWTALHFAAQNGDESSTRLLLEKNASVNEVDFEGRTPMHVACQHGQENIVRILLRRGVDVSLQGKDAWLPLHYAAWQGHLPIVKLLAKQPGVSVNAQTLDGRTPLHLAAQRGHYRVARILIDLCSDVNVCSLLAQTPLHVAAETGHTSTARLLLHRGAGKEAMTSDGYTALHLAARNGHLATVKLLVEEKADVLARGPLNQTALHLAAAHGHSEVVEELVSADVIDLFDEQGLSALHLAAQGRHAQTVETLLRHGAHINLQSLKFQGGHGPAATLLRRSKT
Mitogen-activated protein kinase 13 (Homo sapiens), sequence (O15264 whole entry): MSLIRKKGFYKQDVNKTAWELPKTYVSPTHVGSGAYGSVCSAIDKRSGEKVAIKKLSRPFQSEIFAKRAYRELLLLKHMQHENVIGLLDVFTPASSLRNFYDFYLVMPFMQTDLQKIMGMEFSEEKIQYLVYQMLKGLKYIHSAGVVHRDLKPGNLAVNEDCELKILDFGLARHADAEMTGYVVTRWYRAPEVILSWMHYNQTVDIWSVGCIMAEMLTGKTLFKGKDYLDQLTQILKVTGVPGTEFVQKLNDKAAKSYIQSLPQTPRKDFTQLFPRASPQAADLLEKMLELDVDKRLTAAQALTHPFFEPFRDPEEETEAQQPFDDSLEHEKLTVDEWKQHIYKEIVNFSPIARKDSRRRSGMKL

With `CC1=C(C#N)C(c2ccc3[nH]nc(C)c3c2)C(C#N)=C(C)N1` [BAY-474], the inhibition in test [1] was -4%; in test [2] it was 8%; in test [3], 16%; in [4], 17.7%; in test [5], 0%; in [6] it was -4%. In addition, the inhibition is 4% in test [7]; 9% in [8]; 18% in test [9]; -1% in the test listed under Oryctolagus cuniculus; 10% in [10]; 7% in test [11]. Moreover, the inhibition in test [12] is -2%; in test [13], 46%; in [14], -5%; in [15], 2%; in test [16], 52%.

In the case of `CC1=C(C#N)[C@@H](c2ccc3[nH]nc(C)c3c2)C(C#N)=C(c2ccc(Cl)cc2)N1` [BAY-827], the residual activity is 100% in test [17]; 100% in test [18]; 68.8% in test [19]; 100% in test [21]; 100% in test [22]; 81.1% in test [23]. In addition, the residual activity in test [24] is 100%; in test [25] it was 71.8%; in [26] it was 100%; in test [27], 74.1%; in test [28], 100%; in test [29] it was 100%. In addition, the residual activity in test [30] is 31.8%; in test [31], 100%; in [32] it was 100%; in test [33], 100%; in [34], 100%; in test [35], 100%. In addition, the residual activity in [37], in [38], in [39], in test [40], in test [41] and in test [42] was 100% in each case. In test [43], the residual activity was 90.9%. Further, the Ki in test [20] stood at 10 µM; in test [36] it was 674 nM; on D(1B) dopamine receptor it was 10 µM.
